Test results taken from patent US20220193060A1, “Inhibition of IL-1 Induced Inflammation” (THIOLAB, LLC., priority 2019, published 2022).
Entries after “also recorded” stand apart in the source; their conditions may differ.

Experiments:
THP-1 cells = assay: Cell viability of CPDS-treated THP-1 cells; type: cell-based, human
Description: (§1) Methodology: The study included replicated tests of IL-1β levels with and without CPDS, as well as reference testing of untreated cells and cells treated with lactoferrin and clobetasol. A third test was conducted of IL-1 receptor […] (IL-1RA) receptor, to assist in distinguishing whether reductions in IL-1β levels were associated with secretion or receptor blocking (via the receptor antagonist). Cell viability studies were conducted for both sets of tests. 1. THP-1 cells were grown in (RPMI+10% FBS, 10 mM HEPES, 1 mM Sodium Pyruvate, and 0.05 mM 2-Mecaptpethanol) to P8. 2. Cells were plated at 30,000 cells per well in 120 ul with Media+20 ng/ml PMA+2× Genta. 3. […] Cells were treated according to plan below. 5. Cells were incubated for three more days at 37° C. and 5% CO2. 6. Cell supernatant were collected and ELISA was measured for IL-1RA, IL-1α, and IL-1β. 7. Plate was read at 490 nm until O.D reached 1.5.

IL-1RA = assay: human IL-1RA (receptor antagonist) ELISA, THP-1 supernatant; type: cell-based
Description: as §1, with “1.5. In order to determine whether the reduction in IL-1β was from blocking of secretion or from blocking of the receptor, a human IL-1RA (receptor antagonist) ELISA test was performed.” for “1.5.”

[1] = system: non-malignant intraductal breast hyperplasia; assay: Case: oral CPDS for breast hyperplasia; type: in vivo, human
Description: An individual, diagnosed with non-malignant intraductal breast hyperplasia on the upper left quadrant of the left breast was treated with CPDS. […] CPDS was administered in 99.7% pure form in capsules without excipients.

arthritic psoriasis = assay: Case: oral CPDS for arthritic psoriasis; type: in vivo, human; conditions: oral 140 mg/day, 4 days a week
Description: The patient was a person. Their disease began 1 year previously. Their main complaint was pain in their right wrist, which prevented them from using their right hand and arm; they had bothersome itching cutaneous psoriatic lesions. Treatment at the time consisted of cortisone (5 mg/day) and non-steroidal anti-inflammatory drugs and weekly administrations of methotrexate (MTX) 5 mg/week. The side effects of MTX were severe stomach, throat, and mouth lesions, nightmares, visual hallucinations, and dizziness. The patient began taking oral CPDS 90 days previous (140 mg/day), 4 days a week. Within a few days, the side effects of MTX became much milder, and their immune defenses increased. Instead of catching a cold, as they had often, that lasted for weeks and needed antibiotics, their colds were much more brief normal duration.

colonic polyps = assay: Case: oral CPDS for colonic polyps; type: in vivo, human; conditions: person; oral 140 mg per day; 1, 3, 9, and 10 months
Description: An individual was diagnosed with colon neoplasia. About one month after the initial diagnosis, the individual underwent semi colotomy at which time about 45 cm of their colon was removed. […] The polyps were cauterized at that time. About one month later, the individual began treatment with CPDS which was administered orally at a dose of 140 mg per day.

IL-6 = assay: LPS-stimulated macrophages, IL-6 ELISA; type: cell-based, murine
Description: (§2) An in vitro model of inflammation mediated by macrophages is used. Primary macrophages isolated from humans or non-human species (e.g., mice or rats) were used. A murine macrophage cell line RAW264.7 (CCRL-2278) was also used. Macrophages are treated with CPDS. […] Then the effect of CPDS on inflammation is assessed by comparing the levels of […] mediators IL-6 and IL-10. IL-10 and IL-6 were determined by ELISA. The level of IL-6 and IL-10 were compared to the level prior to CPDS treatment.

IL-10 = assay: LPS-stimulated macrophages, IL-10 ELISA; type: cell-based, murine; conditions: CPDS (e.g., 50 μM) 90 minutes before LPS (10 ug/ml), 24 to 48 hours
Description: as §2

IP-10 = assay: LPS-stimulated RAW 264.7 cells, IP-10 secretion; type: cell-based; conditions: murine RAW 264.7 cells, pre-treatment prior to LPS
Description: An in vitro model of inflammation mediated by macrophages is used. […] A murine macrophage cell line RAW264.7 (CCRL-2278) was also used. Macrophages are treated with CPDS. […] Then the effect of CPDS on inflammation is assessed by comparing the levels of anti-inflammatory mediators IL-6 and IL-10. IL-10 and IL-6 were determined by ELISA. The level of IL-6 and IL-10 were compared to the level prior to CPDS treatment. […] In addition we measured decrease in the secretion of IP-10.

RAW 264.7 cells = assay: Cell viability of RAW 264.7 cells; type: cell-based; conditions: murine RAW 264.7 cells
poison oak = assay: Case: topical CPDS for poison oak exposure; type: in vivo, human
Description: An individual was exposed to poison oak on their left arm through physical contact. They developed a rash and other symptoms of inflammation such as redness, itching, burning sensation, and swelling. The individual was treated using topical application a cream containing 1% CPDS by weight. The cream was applied every two hours on the first day, and thereafter two to three times a day. The cream contained water, mineral oil, stearic acid, triethanolamine, propylene glycol, glyceryl stearate, stearyl alcohol, dirnethicone, isopropyl palmitate, cetyl alcohol, lactic acid, retinyl acetate, tocopheryl acetate, hydrolyzed collagen, fragrance, methylparaben, and O&C red #33. The individual was treated alternatively with 1% CPDS by weight in an ointment containing white petroleum and mineral oil.

[2] = cited from earlier work
[3] = IV doses up to 300 mg/kg (1 mM)

With `O=C(O)c1ccc(SSc2ccc(C(=O)O)cn2)nc1` [CPDS, 6,6′-dithiodinicotinic acid] the cell viability (THP-1 cells; 200 μM) was “slight decline in viability”, the cell viability (THP-1 cells; all CPDS concentrations except 200 μM, both tests) was no less than 100% and the “reduction of IL-1RA” value (IL-1RA; 100 μM) was 60%. For the same molecule, the “reduction of IL-1RA” value (IL-1RA; 200 μM) was 76%, the “effect on IL-1RA production” value (IL-1RA; all concentrations lower than 100 μM) was “did not affect; also recorded: no effect” and the “pain in breast and axilla” value ([1]; after commencing oral 140 mg per day) was “subsided within two days”. For the same molecule, the “pain following discontinuation of CPDS” value ([1]; after discontinuation) was “returned within two to three days”, the side effect ([1]; oral 140 mg per day) was “No side effect” and the “growth of breast hyperplasia (mammograms)” value ([1]; person, oral 140 mg per day, forty-eight months) was “stopped growing”. For the same molecule, the immune defenses (arthritic psoriasis) was “increased”, the “function of right hand and wrist” value (arthritic psoriasis; 90 days) was “regained function” and the “side effects of MTX” value (arthritic psoriasis; person, within a few days) was “much milder”. For the same molecule, the “growth of polyps at check-up visits” value (colonic polyps) was “no new growth”, the “IL-6 levels / expression” value (IL-6; FIG. 3, macrophages inflamed by LPS, dosage series of CPDS) was “dramatically reduced; also recorded: concentration dependent diminution” and the “expression level of IL-6” value (IL-6; macrophages, CPDS (e.g., 50 μM) 90 minutes before LPS (10 ug/ml), 24 to 48 hours) was “dramatically reduced”. The “activity on IL-6 compared with DEX” value (IL-6; murine RAW 264.7 cells, LPS) was “more active”, the “secretion of IL-6” value (IL-6; murine RAW 264.7 cells, pre-treatment prior to LPS) was “drastically reduced” and the “expression level of IL-10” value (IL-10) was “dramatically reduced”. For the same molecule, the “secretion of IP-10” value (IP-10) was “decrease”, the “cytotoxicity (cell viability)” value (RAW 264.7 cells) was “no cytotoxicity” and the itching and burning (poison oak; person, topical cream or ointment with 1% CPDS by weight) was “dissipated immediately”. For the same molecule, the recurrence of symptoms (poison oak; topical 1% CPDS by weight) was “did not recur”, the redness and swelling (poison oak; topical 1% CPDS by weight) was “disappeared in about one week” and the “spread of rash to other parts of the body” value (poison oak; topical 1% CPDS by weight) was “did not spread”. The “kidney or liver weight” value [2, 3] was “slight increase”, the lethality [2, 3] was “not fatal” and the tolerability ([2]; doses up to 300 mg/kg (1 mM) intravenous) was “tolerated”.
